Patent EP3545756A1, “REGENERATION OF PLANTS IN THE PRESENCE OF INHIBITORS OF THE HISTONE METHYLTRANSFERASE EZH2” (KWS SAAT SE & Co. KGaA, priority 2018, dated 2019)
Structures can show the parent of a compound that is named as a salt.

Assays:
sugar beet callus [1] = assay: Shoot formation from sugar beet callus in DZNep-supplemented medium; type: cell-based, Beta vulgaris; details: 8 days
Description: The applied method is based on the publication by Kischenko et al. (2005. Production of transgenetic sugarbeet (Beta vulgaris L.) plants resistant to phosphinothricin. Cell biology international, 29(1), 15-19.). This method relies on the induction of friable callus derived from cotyledons and hypocotyl explants. Method is genotype dependent.
• 1. Micropropagated shoots of the genotype 9BS0448 were used as starting material. Shoots were multiplied in MS salts supplemented with 30 g/l sucrose and 0.25 mg/l benzyladenine (BAP). • 2. To induce friable callus, leaf explants were isolated from micropropagated shoots and incubated in medium containing MS salts including 15 g/l sucrose and 2 mg/l BAP at 28°C in the dark for 7 weeks.
• 3. Friable calli of step 2 were harvested and placed in medium containing MS salts, 30 g/l sucrose, 1 mg/l GA3 and 1 mg/l TDZ, and transferred to separate dishes as control. Similar amount of friable calli were harvested and placed in the same medium supplemented with 0.4 mg/l DZNep. • 4. The dishes were incubated under the light/dark regime (16 h/8 h) at 24°C for 8 days. • 5. Developing shoots were counted under a stereomicroscope, in order to estimate the regeneration capacity.

sugar beet callus [2] = assay: Shoot formation after particle bombardment of sugar beet callus; type: cell-based, Beta vulgaris
Procedure: • 1. Friable calli were produced as described above in steps 1 and 2 of Example 1. • 2. An osmotic treatment was carried out by incubating the harvested calli in a medium containing MS salts, 30 g/l sucrose,1 mg/l GA3,1 mg/l Thidiazuron (TDZ),10 g/l agar, pH 6.0, 36 g/l mannitol and 36 g/l sorbitol for 2.5 h at room temperature in the dark. • 3. Preparation and DNA coating of the gold particles was done by standard procedures, as describe in the PDS-1000/He instruction manual. The plasmid pZFNnptll with the red fluorescent marker, tdT, (see Figure 2) was coprecipitated with gold particles. • 4. Calli were bombarded with a PDS-1000/He unit (Bio-Rad), using 30 ng gold particles coated with 500 ng DNA per shot. The rupture pressure was 450 psi and the target tissue was placed at 9 cm distance from the stopping screen. • 5. After bombardment, aliquots of calli tissue were incubated in medium containing MS salts, 30 g/l sucrose, 1 mg/l GA3 and 1 mg/l TDZ, with and without 0.4 mg/l DZNep, in light/dark (16h/8h), at 24 °C for 10 days on separate plates. As a control for standard regeneration, non-bombarded aliquots of calli were treated in the osmotic medium and directly transferred to above medium without DZNep. Shoot number was scored by using a standard binocular.

Sugar beet plants = assay: Plant growth after regeneration from shoots induced with temporary DZNep treatment; type: in vivo, Beta vulgaris; details: shoots from DZNep plates transferred into normal growth medium without DZNep, compared with shoots from control plates
Description: Beside the increased capability for shoot formation the inventors observed that shoots harvested from the control plates and from the plates supplied with DZNep and subsequently transferred into the container with normal growth medium (without DZNep), developed to plant with different biomass and vitality. […] Thus, the DZNep treatment affects also positively the plant growth after regeneration.

## Nc1nccc2c1ncn2[C@@H]1C=C(CO)[C@@H](O)[C@H]1O [DZNep, 3-Deazaneplanocin A hydrochloride]
Sugar beet callus [1]; 0.4 mg/l DZNep in shoot induction medium, genotype 9BS0448, 24°C, light/dark 16 h/8 h, control 13.9
  mean value of shoots per 1 g callus tissue: 27.1 shoots per 1 g callus tissue
Sugar beet callus [1]; 0.4 mg/l DZNep versus control without DZNep
  increase of shoots per 1 g callus tissue compared to control: 95%
Sugar beet callus [2]; bombarded calli with 0.4 mg/l DZNep versus bombarded control with standard medium
  increase of shoots per plate compared to the bombarded control: 207%
Sugar beet callus [2]; bombarded calli with 0.4 mg/l DZNep versus non-bombarded control without DZNep
  increase of shoots per plate compared to the non-bombarded control: 108%
Sugar beet callus [2]; bombarded calli, 0.4 mg/l DZNep in medium, 10 days, 24 °C, non-bombarded control 4, bombarded control 2.7
  mean value of shoots per plate: 8.3 shoots per plate
Sugar beet plants
  plant biomass and vitality after regeneration: significantly bigger and more vital
